According to patent US10391100B2, “Combination of aurora kinase inhibitors and anti-CD20 antibodies” (Millennium Pharmaceuticals, Inc., priority 2008, dated 2019):
Marks after values point to notes of the source that are not given here.

What was measured:
Type in all cases: in vivo, human (in female SCID mice)
[1] = system: WSU-DLBCL2-Luc disseminated lymphoma; assay: Disseminated WSU-DLBCL2-Luc lymphoma model, first study (QD dosing); details: for Median Survival / Maximum Percent Body Weight Change (%) / TGI Mean (%): 1st study; for Maximum Percent Body Weight Change (%) / TGI Mean (%): Day 21; for Pct Decrease in AUC Relative to Mean Vehicle AUC: first study, PO, QD, log10 photon flux vs day AUC, Days 0 through 21
Procedure: (§1) The Ly19-Luc, WSU-DLBCL2-Luc and PHTX-22-06 models described in these studies are human DLBCL cell lines, transfected with luciferase. These models were grown in immununocomprimised mice subcutaneously on the flank, or disseminated throughout the body by tail vain injection.
(§2) Two separate studies were conducted in the WSU-DLBCL2-luc model.

[2] = system: WSU-Luc lymphoma (cell line WSU-DLCL2); assay: Subcutaneous WSU-Luc lymphoma model, tumor volume (Example 2); details: Compound III-1 3 mg/kg, PO, qd; Days 0 through 20
Procedure: (§3) Tumor growth was monitored with vernier calipers. The mean tumor volume was calculated using the formula V=W^2×L/2.
(§4) The statistical methodology used in these experiments was the same as that described in Example 1 above.

[3] = system: primary diffuse large B-cell lymphoma PHTX-22-06; assay: Sub-cutaneous primary diffuse large B-cell lymphoma model PHTX-22-06, tumor volume (Example 3); details: Compound III-1 20 mg/kg, PO, bid; Days 0 through 27
Procedure: Tumor growth was monitored with vernier calipers. The mean tumor volume was calculated using the formula V═W^2×L/2.
The animals were inoculated with 2×5 mm^3 tumor mass from primary […] tumor chunk at implant site Flank (trocar).
as §4

[4] = system: WSU-DLBCL2-Luc disseminated lymphoma; assay: Disseminated WSU-DLBCL2-Luc lymphoma model, second study (BID dosing); details: for Median Survival / Maximum Percent Body Weight Change (%) / TGI Mean (%): 2nd study; for TGI Mean (%): Day 22; for number of mice remaining at the end of the study: Day 130; for Pct Decrease in AUC Relative to Mean Vehicle AUC: second study, PO, BID, log10 photon flux vs day AUC, Days 0 through 21
Procedure: as §1, §2

[5] = system: Ly19 lymphoma (cell line Ly-19); assay: Sub-cutaneous Ly19 lymphoma model, tumor volume (Example 1); details: for Pct Decrease in AUC Relative to Mean Vehicle AUC: Days 0 through 21; for Change in Slope: log tumor volume, slope (day 21 to 62) − slope (day 13 to 21)
Procedure: as §3
P-values <0.05 were considered significant.

[6] = system: Ly19-Luc disseminated lymphoma; assay: Disseminated Ly19-Luc lymphoma model, Experiment #2 (Example 4)
Procedure: (§5) The in vivo experiments using the disseminated Ly19-Luc lymphoma model were performed in duplicate. […] Tumor volumes were estimated once weekly throughout the inoculation and treatment period using the Xenogen IVIS® imaging system (Xenogen Corporation, Alameda, Calif.). To image the mice, an intraperitoneal (IP) injection of […] (15 mg/ml), was administered 10 minutes prior to procedure and mice were anesthetized with 2% isofluorane 2-5 minutes throughout the scanning procedure. For Xenogen imaging, each mouse was imaged on dorsal and ventral views. The sum of 2 photon flux measurements was used for the analysis.
(§6) The antitumor effects of each treatment group were determined by calculating the percent TGI ([Δ control mean tumor volume−Δ treated mean tumor volume]×100/Δ control mean tumor volume) at the end of treatment. Mice were weighed once weekly for the duration of the study and the maximal percent body weight change was determined during the treatment period. Animals were monitored for survival up to 132 days following treatment. Animals were removed from the study when they reached humane endpoints (>20%, body weight loss or paralysis of either both front or hind limbs), the medial survival for each group was determined and the survival rate of treatment groups were compared to control. Treatment groups were evaluated to determine if the effects of combination treatment were synergistic, additive or sub-additive relative to control.
(§7) The photon flux data was log10 transformed, and these values over the treatment period were compared across treatment groups to assess if the differences in the trends over time were statistically significant. A mixed-effects linear regression model using a restricted maximum likelihood was fit to the data. An ANOVA test was performed to determine if there was a statistically significant difference between the treatment groups and control.
(§8) Log10-transformed fold change photon flux values (tumor burden) from baseline were also used to calculate AUC values for each animal. The AUC values from the mice in a given treatment group were then averaged together to generate mean AUC values and associated standard errors.
(§9) A synergy score calculation was used to address the question of whether the effects of the combination treatment were synergistic, additive, or sub-additive relative to the individual treatments.
(§10) To compare the tumor regrowth rates after stopping treatment, mixed-effects piecewise linear regression models were built separately for each treatment group with mice monitored beyond treatment period. All P-values <0.05 were called significant in this report.
(§11) The survival rates of the animals in each treatment group were plotted using Kaplan-Meier curves and the log rank test was used to compare survival rates among pairs of treatment groups.
Mice were dosed according to the following treatment groups:
Mice were weighed and tumor volumes were estimated with Xenogen signal (average photon flux) calculation once a week throughout the inoculation and the treatment period and after the treatment until the end of study.
Treatment started 7 days following the inoculation of tumor cells into the tail vein, with an average photon flux measurement of 1×10^7 on treatment Day 0.

[7] = system: Ly19-Luc disseminated lymphoma; assay: Disseminated Ly19-Luc lymphoma model, Experiment #1 (Example 4); details: for Maximum Percent Body Weight Change / TGI Mean / BW change (maximum body-weight change): Day 24; for TGI: calculated on Day 24; for number of mice remaining by the end of the study: Day 132
Procedure: as §5
as §6, with “Animals were monitored for survival up to 132 days following treatment.” left out
as §7, §8, §9, §10, §11

[8] = Compound III-1 3 mg/kg po/QD × 21 days
[9] = Compound III-1 10 mg/kg po/QD × 21 days
[10] = Compound III-1 10 mg/kg po/BID × 21 days
[11] = Compound III-1 20 mg/kg po/QD × 21 days (dose holiday Day 9 to Day 13)
[12] = Compound III-1 3 mg/kg PO QD × 3 wks, Day 23
[13] = Compound III-1 3 mg/kg Po/QD × 21 days
[14] = Compound III-1 10 mg/kg Po/QD × 21 days

COc1cc(Nc2ncc3c(n2)-c2ccc(Cl)cc2C(c2c(F)cccc2OC)=NC3)ccc1C(=O)O [Compound III-1, 4-{[9-chloro-7-(2-fluoro-6-methoxyphenyl)-5H-pyrimido[5,4-d][2]benzazepin-2-yl]amino}-2-methoxybenzoic acid]
Median Survival [1, 8]: 46.5 days | Maximum Percent Body Weight Change (%) [1, 8]: −3.1, Day 21% | TGI Mean (%) [1, 8]: 50.9, Day 21% | Median Survival [1, 9]: 44 days | Maximum Percent Body Weight Change (%) [1, 9]: −4.5, Day 21% | TGI Mean (%) [1, 9]: 88.2, Day 21% | TGI ([1]; Compound III-1 alone 3 mg/kg QD): 50.9% | TGI ([1]; Compound III-1 alone 10 mg/kg QD): 88.2% | Pct Decrease in AUC Relative to Mean Vehicle AUC ([1]; Compound III-1 3 mg/kg): 21.1% | Pct Decrease in AUC Relative to Mean Vehicle AUC ([1]; Compound III-1 10 mg/kg): 42.0% | Pct Decrease in AUC Relative to Mean Vehicle AUC [2]: 19.4 Pct | Pct Decrease in AUC Relative to Mean Vehicle AUC [3]: 79.3 Pct | Median Survival [4, 10]: 70 days | Maximum Percent Body Weight Change (%) ([4]; Compound III-1 10 mg/kg po/BID × 21 days, Day 19): −3.9, Day 19% | TGI Mean (%) [4, 10]: 99.7, Day 22% | Median Survival [4, 11]: 111.5 days | Maximum Percent Body Weight Change (%) ([4]; Compound III-1 20 mg/kg po/QD × 21 days (dose holiday Day 9 to Day 13), Day 9): −8.9, Day 9% | TGI Mean (%) [4, 11]: 99.7, Day 22% | TGI ([4]; Compound III-1 alone 10 mg/kg BID): 99.7% | TGI ([4]; Compound III-1 alone 20 mg/kg BID): 99.7% | mean maximum body weight loss ([4]; Compound III-1 at 20 mg/kg BID, Day 9): 8.9% | number of mice remaining at the end of the study ([4]; 10 mg/kg single agent Compound III-1): 1 out of 10 | number of mice remaining at the end of the study ([4]; 20 mg/kg Compound III-1 single agent): 5 out of 10 | Pct Decrease in AUC Relative to Mean Vehicle AUC ([4]; Compound III-1 10 mg/kg): 94.0% | Pct Decrease in AUC Relative to Mean Vehicle AUC ([4]; Compound III-1 20 mg/kg): 96.6% | Pct Decrease in AUC Relative to Mean Vehicle AUC ([5]; Compound III-1 3 mg/kg qd): 22.9 Pct | Pct Decrease in AUC Relative to Mean Vehicle AUC ([5]; Compound III-1 10 mg/kg bid): 105.6 Pct | Pct Decrease in AUC Relative to Mean Vehicle AUC ([5]; Compound III-1 10 mg/kg qd): 79.3 Pct | Change in Slope ([5]; Compound III-1 10 mg/kg bid): 0.018 | Change in Slope ([5]; Compound III-1 10 mg/kg qd): 0.040 | Mean BW Day 0 ([6]; Compound III-1 3 mg/kg PO QD × 3 wks, Day 0 (baseline)): 19.2 g | Maximum BW Change (%) Day 22 ([6]; Compound III-1 3 mg/kg PO QD × 3 wks, Day 22): +3.1% | Mean BW Day 22 ([6]; Compound III-1 3 mg/kg PO QD × 3 wks, Day 22, in g (unit assumed)): 19.81 | Mean Photon Flux (Day 23) [6, 12]: 2.34E+08 | TGI Day 23 [6, 12]: 87.7% | tolerability ([6]; Compound III-1 at 3 mg/kg on a QD schedule): well tolerated | Mean AUC ([6]; log10 fold change photon flux vs day, up to Day 23, Compound III-1 3 mg/kg QD): 18.2 | Median Survival [7, 13]: 40 days | Maximum Percent Body Weight Change [7, 13]: +6.2, Day 24% | TGI Mean [7, 13]: 89.6, % | Median Survival (Days) [7, 8]: 40, p < 0.01^c Days | BW change (maximum body-weight change) [7, 8]: +6.2, Day 24% | TGI [7, 8]: 89.6, p < 0.001% | Median Survival [7, 14]: 63.5 days | Maximum Percent Body Weight Change [7, 14]: +3.3, Day 24% | TGI Mean [7, 14]: 100, % | Median Survival (Days) [7, 9]: 63.5, p < 0.01 Days | BW change (maximum body-weight change) [7, 9]: +3.3%, Day 24 | TGI [7, 9]: 100, p < 0.001% | tolerability ([7]; Compound III-1 at 3 or 10 mg/kg on a QD schedule): well tolerated | number of mice remaining by the end of the study ([7]; single agent Compound III-1 3 mg/kg): 1 out of 10 | number of mice remaining by the end of the study ([7]; single agent Compound III-1 10 mg/kg): 3 out of 10
